Data reported in patent US20180057505A1, “BICYCLIC HETEROARYL COMPOUNDS USEFUL AS INHIBITORS OF THE PAR-2 SIGNALING PATHWAY” (VERTEX PHARMACEUTICALS INCORPORATED, priority 2015, published 2018).

Columns and labels:
Type in all cases: cell-based
[1] = target: T1, PAR2 (HT-29 cells) (Homo sapiens, UniProt P55085); test: Ca FLIPR TETRA assay, ANTAGONIST mode, activator 8 μM SLIGKV; conditions: HT-29 cells; activator 8 μM SLIGKV; Method A: maximal concentration of antagonist 0.1, 1 or 2 μM
T1 construct: host or cells: HT-29
T1 sequence (P55085 26-397): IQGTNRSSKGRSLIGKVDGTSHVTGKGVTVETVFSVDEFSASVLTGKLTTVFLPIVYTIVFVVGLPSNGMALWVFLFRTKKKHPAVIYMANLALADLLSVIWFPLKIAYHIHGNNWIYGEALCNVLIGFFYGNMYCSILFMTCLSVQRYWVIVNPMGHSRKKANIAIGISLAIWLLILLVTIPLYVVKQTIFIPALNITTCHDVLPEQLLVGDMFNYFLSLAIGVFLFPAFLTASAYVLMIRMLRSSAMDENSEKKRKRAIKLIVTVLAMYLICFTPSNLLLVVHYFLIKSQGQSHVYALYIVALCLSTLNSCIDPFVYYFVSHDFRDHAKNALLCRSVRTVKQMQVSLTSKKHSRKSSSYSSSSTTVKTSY
Summary of the method: (§1)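 Antagonist mode, HT-29: cells O/N 37 °C, 1% FBS; calcium 5 dye 45 min 37 °C + 15 min RT; cpd (DMSO, HBSS-diluted) 30 min RT; activator at final conc. (8 μM SLIGKV / 1 U/mL thrombin / 3.1 U/mL trypsin / 0.6 μM UTP); FLIPR Tetra Ca2+ read.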

[2] = test system: UTP-stimulated Ca2+ response in HT-29 cells; test: Ca FLIPR TETRA assay, ANTAGONIST mode, activator 0.6 μM UTP; conditions: Homo sapiens; HT-29 cells, activator 0.6 μM UTP
Summary of the method: as §1

[3] = test system: Thrombin-stimulated Ca2+ response in HT-29 cells; test: Ca FLIPR TETRA assay, ANTAGONIST mode, activator 1 U/mL Thrombin; conditions: Homo sapiens; HT-29 cells, activator 1 U/mL Thrombin
Summary of the method: as §1

[4] = target: T1, PAR2 (HT-29 cells); test: Ca FLIPR TETRA assay, ANTAGONIST mode, activator 3.1 U/mL trypsin; conditions: HT-29 cells; activator 3.1 U/mL trypsin; Method A: maximal concentration of antagonist 0.1, 1 or 2 μM
Summary of the method: as §1

Compound	IC50 [1] [nM]	IC50 [2] [nM]	IC50 [3] [nM]	IC50 [4] [nM]
CC(C)(C)c1cc(-c2ccc(Cl)cc2)nc2cc(C(=O)N3CCNC(=O)CC3(C)C)oc12 [Example I-323]	12	> 2000	> 2000	18
CC(C)(C)c1cc(-c2ccc(Cl)c(F)c2)nc2cc(C(=O)N3CCN(C(=O)CC4(C(=O)O)CCCC4)CC3(C)C)oc12 [Example I-324]	0.2	> 2000	> 2000	0.4
CC(C)(C)c1cc(-c2ccc(Cl)cc2)nc2cc(C(=O)N3CCN(c4ccncc4)C(=O)C3(C)C)oc12 [Example I-328]	16	> 2000	> 2000	22
CC(C)(C)c1cc(-c2ccc(Cl)c(F)c2)nc2cc(C(=O)N3CCN(c4ccccn4)C(=O)C3(C)C)oc12 [Example I-329]	12	> 2000	> 2000	13
CC(C)[C@H](CC(=O)N1CCN(C(=O)c2cc3nc(-c4ccc(Cl)cc4)cc(C(C)(C)C)c3o2)C(C)(C)C1)C(=O)O [Example I-333]	0.4	2000	1800	0.7
Cc1ccnc(N2CCN(C(=O)c3cc4nc(-c5ccc(Cl)cc5)cc(C(C)(C)C)c4o3)C(C)(C)C2=O)n1 [Example I-340]	0.9	> 2000	> 2000	1.7
CC(C)(C)c1cc(-c2ccc(Cl)cc2)nc2cc(C(=O)N3CCN(c4ncc(-c5nnn[nH]5)cn4)CC3(C)C)oc12 [Example I-341]	1.6	1700	> 2000	4.4
CC(C)[C@H](CC(=O)N1CCN(C(=O)c2cc3nc(-c4ccc(Cl)c(F)c4)cc(C(C)(C)C)c3o2)C(C)(C)C1)C(=O)O [Example I-343]	0.2	2100	1700	0.4
CC1(C)CCC(c2cc(C(C)(C)C)c3oc(C(=O)N4CCN(c5cccc(-c6nnn[nH]6)n5)CC4(C)C)cc3n2)CC1 [Example I-345]	0.3	> 2000	> 2000	0.7
CN(CC(=O)O)CC(=O)N1CCN(C(=O)c2cc3nc(-c4ccc(Cl)cc4)cc(C(C)(C)C)c3o2)C(C)(C)C1 [Example I-347]	290	> 2000	> 2000	500
CC(C)(C)c1cc(-c2ccc(Cl)cc2)nc2cc(C(=O)N3CCN(c4cccc(-c5nnn[nH]5)n4)CC3(C)C)oc12 [Example I-350]	0.08	> 2000	> 2000	0.3
CC(C)(C)c1cc(-c2ccc(Cl)c(F)c2)nc2cc(C(=O)N3CCN(c4ncccc4C(=O)O)CC3(C)C)oc12 [Example I-351]	5.1	> 2000	> 2000	9
CC(C)(C)c1cc(-c2ccc(Cl)c(F)c2)nc2cc(C(=O)N3CCN(S(C)(=O)=O)C(=O)C3(C)C)oc12 [Example I-353]	38	> 2000	> 2000	34

Further compounds by falling IC50 [1], results first:

IC50 [1] [nM]	IC50 [2] [nM]	IC50 [3] [nM]	IC50 [4] [nM]	Compound
94	> 2000	> 2000	90	Cn1nccc1S(=O)(=O)N1CCN(C(=O)c2cc3nc(-c4ccc(Cl)c(F)c4)cc(C(C)(C)C)c3o2)C(C)(C)C1=O [Example I-342]
92	> 2000	> 2000	240	CC(C)(C)c1cc(-c2ccc(Cl)cc2)nc2cc(C(=O)N3CCC(=O)NCC3(C)C)oc12 [Example I-322]
91	> 2000	> 2000	28.5	CC(C)(C)c1cc(-c2ccc(Cl)c(F)c2)nc2cc(C(=O)N3CCC(=O)NCC3(C)C)oc12 [Example I-335]
80	> 2000	> 2000	75	CC(C)(C)c1cc(-c2ccc(Cl)cc2)nc2cc(C(=O)N3CCN(c4ccnnc4)CC3(C)C)oc12 [Example I-349]
67	> 2000	> 2000	38	CC(C)(C)c1cc(-c2ccc(Cl)c(F)c2)nc2cc(C(=O)N3CCN(c4ccnnc4)CC3(C)C)oc12 [Example I-348]
23	> 2000	> 2000	38	CC(C)(C)c1cc(-c2ccc(Cl)cc2)nc2cc(C(=O)N3CCN(c4cccnc4)C(=O)C3(C)C)oc12 [Example I-326]
21	> 2000	> 2000	32	CC(C)(C)c1cc(-c2ccc(Cl)cc2)nc2cc(C(=O)N3CCN(c4ccccn4)C(=O)C3(C)C)oc12 [Example I-330]
20	> 2000	> 2000	20	CC(C)(C)c1cc(-c2ccc(Cl)c(F)c2)nc2cc(C(=O)N3CCN(c4cccnc4)C(=O)C3(C)C)oc12 [Example I-325]
10	> 2000	> 2000	12	CC(C)(C)c1cc(-c2ccc(Cl)c(F)c2)nc2cc(C(=O)N3CCN(c4ccncc4)C(=O)C3(C)C)oc12 [Example I-327]
6.3	> 2000	> 2000	9.6	CC(C)(C)c1cc(-c2ccc(Cl)c(F)c2)nc2cc(C(=O)N3CCNC(=O)CC3(C)C)oc12 [Example I-336]
2.1	2000	> 2000	3.1	Cc1ccc(C(=O)O)c(N2CCN(C(=O)c3cc4nc(-c5ccc(Cl)c(F)c5)cc(C(C)(C)C)c4o3)C(C)(C)C2)n1 [Example I-352]
1.6	1000	2100	4.1	CC1(C)CCC(c2cc(C(C)(C)C)c3oc(C(=O)N4CCN(c5ncc(-c6nnn[nH]6)cn5)CC4(C)C)cc3n2)CC1 [Example I-346]
1.4	> 2000	> 2000	1.6	Cc1cncc(N2CCN(C(=O)c3cc4nc(-c5ccc(Cl)c(F)c5)cc(C(C)(C)C)c4o3)C(C)(C)C2=O)n1 [Example I-334]
1.3	> 2000	1800	2.8	CC(C)(C)c1cc(-c2ccc(Cl)c(F)c2)nc2cc(C(=O)N3CCN(c4ncc(-c5nnn[nH]5)cn4)CC3(C)C)oc12 [Example I-331]
1.3	> 2000	> 2000	3.1	Cc1ccnc(N2CCN(C(=O)c3cc4nc(C5CCC(C)(C)CC5)cc(C(C)(C)C)c4o3)C(C)(C)C2=O)n1 [Example I-339]
0.4	> 2000	> 2000	0.9	CC(C)(C)c1cc(-c2ccc(Cl)cc2)nc2cc(C(=O)N3CCN(C(=O)CC4(C(=O)O)CCC4)CC3(C)C)oc12 [Example I-337]
0.3	> 2000	> 2000	0.5	CC1(C)CCC(c2cc(C(C)(C)C)c3oc(C(=O)N4CCN(C(=O)CC5(C(=O)O)CCC5)CC4(C)C)cc3n2)CC1 [Example I-338]
0.1	> 2000	> 2000	0.2	CC(C)(C)c1cc(-c2ccc(Cl)c(F)c2)nc2cc(C(=O)N3CCN(c4cccc(-c5nnn[nH]5)n4)CC3(C)C)oc12 [Example I-344]
